{"source": "patent EP0385952A2", "about": "“Use of a naphthalenmethanamino derivative as antiinflammatory agent and pharmaceutical compositions containing it” (SANDOZ AG, priority 1989, dated 1990)", "key": {"platelets": {"test_system": "platelets", "assay": "Thromboxane B₂ production in platelets", "type": "cell-based", "details": "Platelet, read-out: IC₅₀ for thromboxane B₂ production"}, "[1]": {"test_system": "lactate dehydrogenase release", "assay": "Cytotoxicity: release of lactate dehydrogenase", "type": "cell-based", "details": "cytotoxicity control of the in vitro assays", "protocol": "Macrophages 10 to 14 days old isolated from the bone marrow of mice are incubated in monolayers with the test compound in the presence of Concanavalin A (Con A) (100 µg/ml) as soluble stimulant. After 24 hours the cell-free medium is collected and macrophage activation is investigated biochemically as the extent of plasminogen activator release, assayed photometrically as the plasminogen-dependent amidolysis of D-Val-Phe-Lys-4-nitroanilide according to the principles described in J.C. Drapier et al., Biochemie 61 (1979) 463-471. Cell viability is assayed by measurement of lactate dehydrogenase release according to the method of H.U. Bergmeyer and E. Bernt, Methoden der Enzymatischen Analyse, 3. Auflage, Verlag Chemie (1974) 612-615, adapted as a kinetic assay using microtiter plates. All cultures are checked microscopically for qualitative morphological modification.\nThe test compound is added in various concentrations to monolayers of OF₁-mouse resident peritoneal macrophages isolated as described in J. Schnyder and M. Baggiolini, J. Exp. Med. 148 (1978) 435-450. […] The supernatants are then analysed by radioimmunoassay procedures for thromboxane B₂, prostaglandin E₂ and leukotriene C₄. Lactate dehydrogenase activities in the medium and cell lysates are also measured as an indication of cell toxicity."}, "mice [2]": {"test_system": "mice", "assay": "Croton oil-induced pinnal swelling in mice (irritant contact dermatitis, 2.1.2.)", "type": "in vivo", "details": "simultaneous, topical, pinnal weight after 6 hours", "protocol": "(§1) Skin irritation with arachidonic acid or cantharidin is often used to experimentally induce inflammation in order to evaluate the anti-inflammatory activity of a compound [see e.g. Inflammation 8 (1984) 134-135; 10 (1986) 205-214]. NMRI mice (8 animals per group) receive 10 µl of a 10 % solution of arachidonic acid [J.M. Young et al., J. Invest. Derm. 82 (1986) 367-371] in acetone or, respectively, 0.08 % cantharidin [K.E. Swingle et al., Arch. Int. Pharmacodyn. Ther. 254 (1981) 168-176] in acetone applied to the medial and lateral surface of the right external ear. Treatment is performed either prophylactically 30 minutes before irritation (arachidonic acid) or, respectively, either simultaneously with the application of irritant solution or therapeutically 20 minutes after irritation (cantharidin), by a single epicutaneous application of the test compound dissolved in a mixture of N,N-dimethylacetamide, acetone and alcohol (2:2:4). The evaluation of the test group is effected by comparison with a control group of animals having received on the right ear lobe only the carrier substance or the irritant solution. The animals are killed 1.5 hours (arachidonic acid) or, respectively, 17 hours (cantharidin) after application of the irritant and efficacy in assessed by determination of the differences in auricular weight. Differences in weights (D) of right (involved) and left (uninvolved) pinnae of animals treated with test compound and arachidonic acid or cantharidin (T-group) are compared with differences in mice treated with arachidonic acid only or cantharidin only (C-group). Efficacy (%) is calculated according to the equation: [formula]\n(§2) This model is similar to the above (see 2.1.1.). Skin inflammation is induced with 15 µl of 0.23 % croton oil in a mixture of dimethylacetamide, acetone and ethanol (2:4:4), or with 10 µl of 0.005 % TPA [12-O-tetradecanoylphorbol-13-acetate; Sigma] prepared in acetone with 0.5 % dimethylsulfoxide. Topical treatment is performed either simultaneously with the irritation (croton oil) or 20 minutes after the application (TPA). The test compound is prepared in DAE. Efficacy is assessed 6 hours after onset of irritation by determination of the auricular weight as described above."}, "[3]": {"test_system": "Macrophages isolated from the bone marrow of mice", "assay": "Zymosan-stimulated release of hydrogen peroxide", "type": "cell-based", "details": "Mus musculus, Macrophage, 2 hours at 37° C, read-out: IC₅₀, zymosan-stimulated release of hydrogen peroxide", "protocol": "The production of hydrogen peroxide is used as a measure for the respiratory burst of phagocytic cells. Macrophages 10 to 14 days old, isolated from the bone marrow of mice are incubated for 10 to 30 minutes in the presence of the test compound. Zymosan (0.5 ml) is then added as phagocytic stimulant and the mixture is incubated for a further 2 hours at 37° C in the presence of homovallinic acid (0.5 ml, 400 µM) and horse radish peroxidase (4 U/ml). The reaction is stopped by the addition of 0.25 ml 0.1 M glycine-NaOH buffer, pH 12, containing 25 mM EDTA, the samples centrifuged at 2200 g for 10 minutes, and the homovallinic acid oxidation product, as a measure of the amount of H₂O₂ produced, measured fluorimetrically."}, "human keratinocytes": {"test_system": "human keratinocytes", "assay": "Inhibition of TPA-stimulated PGE₂ synthesis of human keratinocytes", "type": "cell-based", "details": "Keratinocyte, TPA 100 ng/ml, 24 hours, read-out: IC₅₀, inhibition of TPA-stimulated PGE₂ synthesis", "protocol": "Cultures of human keratinocytes are obtained by trypsinisation of neonatal human foreskins. The keratinocyte cultures are grown in a supplemented keratinocyte growth medium (KGM; Clonetics) using culture flasks. Passages 3-5 of 80-90 % confluent keratinocytes are resuspended in KGM at a concentration of 1x10⁵ cells/ml and 0.1 ml are plated into 96 well-microtiter plates in the presence of test compound. For the stimulation of PGE₂ release human keratinocytes or the HACAT human skin keratinocyte cell line [P. Boukamp et al., J. Cell Biol. 106 (1988) 761-771] are grown to confluence in KGM medium and stimulated with TPA (100 ng/ml) for 24 hours. Conditioned media are centrifuged and concentrations of PGE₂ are determined using a ¹²⁵I radioimmunoassay (NEN, Boston, Mass.). Each sample is assayed in duplicate."}, "mice [4]": {"test_system": "mice", "assay": "TPA-induced pinnal swelling in mice (irritant contact dermatitis, 2.1.2.)", "type": "in vivo", "details": "therapeutic, topical, pinnal weight after 6 hours", "protocol": "as §1, §2"}, "[5]": {"test_system": "Cyclooxygenase (prostaglandin synthetase)", "assay": "Cyclooxygenase inhibition", "type": "biochemical", "details": "at 100 µM"}, "12 + 15-lipoxygenase": {"test_system": "12 + 15-lipoxygenase", "assay": "12 + 15-lipoxygenase inhibition (neutrophil functions)", "type": "cell-based", "details": "read-out: IC₅₀ for 12 + 15-lipoxygenase"}}, "note": "Marks after values point to notes of the source that are not given here.", "data": [{"smiles": "CN(C/C=C/c1ccc(O)cc1)Cc1cccc2ccccc12", "note": "[compound of the invention, (E)-N-methyl-N-[3-(4-hydroxyphenyl)-2-propenyl]-1-naphthalene-methanamine]", "values": [{"measurement": "IC50", "setting": "platelets", "result": 100, "unit": "µM"}, {"measurement": "release of lactate dehydrogenase", "setting": "[1]", "result": "below 10%"}, {"measurement": "Efficacy (%)", "setting": "mice [2]; test concentration 1.2 %", "result": "67** %"}, {"measurement": "Efficacy (%)", "setting": "mice [2]; test concentration 3.6 %", "result": "81** %"}, {"measurement": "IC50", "setting": "[3]", "result": 2.1, "unit": "µM"}, {"measurement": "IC50", "setting": "human keratinocytes", "result": "1 to 3", "unit": "µM"}, {"measurement": "Efficacy (%)", "setting": "mice [4]; test concentration 1.2 %", "result": 51, "unit": "%"}, {"measurement": "Efficacy (%)", "setting": "mice [4]; test concentration 3.6 %", "result": "60*** %"}, {"measurement": "Cyclooxygenase (prostaglandin synthetase) inhibition", "setting": "[5]", "result": "not inhibited"}, {"measurement": "IC50", "setting": "12 + 15-lipoxygenase", "result": 100, "unit": "µM"}]}]}
